From patent US20180185431A1, “HOVENIAE SEMEN CUM FRUCTRUS EXTRACT COMPOSITIONS AND METHOD OF USE” (ARIBIO Co., Ltd., priority 2016, published 2018)

Tests used:
[1] = test system: ARE (Nrf2), pGL4.37 transfected HepG2 cells; test: ARE-driven luciferase reporter gene assay (Nrf2 transactivation); type: cell-based, human; details: SFN 30 M
Procedure: To examine the possibility that ARE activation by Nrf2 is associated with HSCF extracts-mediated cytoprotection, pGL4.37 tranfected HepG2 cells (5×10^5 cells/well) were plated in 12-well overnight, serum starved for 12 hrs, and then subsequently exposed to 30-1000 μg/ml HSCF extracts for 18 hrs. ARE-driven luciferase activity was measured in the cell treated with HSCF extracts. […] The relative ARE-luciferase activities were 1.39±0.88, 1.62±1.08, 1.91±1.22, and 3.25±0.88 in […] HSCF extracts treated cells, respectively (FIG. 3).
ARE-driven reporter gene construct, pGL4.37 [luc2P/ARE/Hygro] was obtained from promega (Madison, Wis., USA). HepG2 cells were stably transfected with pGL4.37 plasmid using Fugene HD (Promega, Madison, Wis., USA) according to manufacturer's instruction and 80 µg/mL hygromycin was added to select the resistant colonies. The resistant colonies were pooled and used for reporter gene analysis. […] Luciferase activities in cell lysates were measured by adding luciferase assay reagent (Promega, Madison, Wis., USA) using […] automatic multimode reader (Model Infinite 200 PRO; Tecan, Männedorf, Switzerland). The relative luciferase activity was calculated as the relative change to protein content determined by bicinchoninic acid (BCA) method.

HepG2 cells = test: MTT assay, tBHP-induced cytotoxicity (cytoprotection); type: cell-based, human; details: SFN 30 M pretreatment, 150 M tBHP

With `C[S+]([O-])CCCCN=C=S` (centres unmarked) [SFN, Sulforaphane] the ARE-driven luciferase activity [1] was “significantly increased luciferase activity” and the “protection from tBHP-mediated cell death” value (HepG2 cells) was “significantly protected from tBHP-mediated cell death”.
